The values below are quoted from earlier work in patent US12029226B2, “Concentrate for preparing a drinkable solution (II)” (Alzchem Trostberg GmbH, priority 2019, dated 2024).

Molecules are shown by their SMILES.

The conditions of this data set: literature value.

For `O=CO` [formic acid], the pKs value is listed as 3.77. As for `CC(O)C(=O)O` (centres unmarked) [lactic acid], the pKs value is 3.90+/−0.11.
